From ChEMBL document CHEMBL1909046, “DrugMatrix in vitro pharmacology data”

Key:
[1] = molecular target: 5-hydroxytryptamine receptor 1B (Rattus norvegicus, UniProt P28564); assay type: cell membranes, Wistar, Cerebral cortex, Membrane; further: in other assays of this panel Not Active means under 50% inhibition at 10 µM
[2] = DRUGMATRIX: Glutamate, Kainate radioligand binding (ligand: [3H] Kainic acid); assay type: cell membranes, Rattus norvegicus, Wistar, Brain, Membrane; conditions: Not Active = under 50% inhibition at 10 µM
[3] = molecular target: T1, Neuropeptide Y receptor type 2 (Homo sapiens, UniProt P49146); assay type: cell membranes, Membrane; conditions: kan-ts; further: in other assays of this panel Not Active means under 50% inhibition at 10 µM
T1 sequence (P49146 whole entry): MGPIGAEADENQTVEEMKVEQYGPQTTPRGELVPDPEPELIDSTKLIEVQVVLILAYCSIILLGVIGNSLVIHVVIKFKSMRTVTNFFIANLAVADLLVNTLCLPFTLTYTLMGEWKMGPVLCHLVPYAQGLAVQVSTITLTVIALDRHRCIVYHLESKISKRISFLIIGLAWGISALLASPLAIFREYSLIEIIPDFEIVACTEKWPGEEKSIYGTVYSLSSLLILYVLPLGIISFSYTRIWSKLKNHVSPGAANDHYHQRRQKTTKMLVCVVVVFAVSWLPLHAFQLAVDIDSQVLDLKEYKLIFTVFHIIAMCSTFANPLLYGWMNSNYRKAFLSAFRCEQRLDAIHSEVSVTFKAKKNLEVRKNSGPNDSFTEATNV

[4] = molecular target: Vascular endothelial growth factor receptor 1 (Homo sapiens, UniProt P17948); assay type: cell-based; conditions: huvec; further: in other assays of this panel Not Active means under 50% inhibition at 10 µM
Chain of Vascular endothelial growth factor receptor 1 (P17948 whole entry): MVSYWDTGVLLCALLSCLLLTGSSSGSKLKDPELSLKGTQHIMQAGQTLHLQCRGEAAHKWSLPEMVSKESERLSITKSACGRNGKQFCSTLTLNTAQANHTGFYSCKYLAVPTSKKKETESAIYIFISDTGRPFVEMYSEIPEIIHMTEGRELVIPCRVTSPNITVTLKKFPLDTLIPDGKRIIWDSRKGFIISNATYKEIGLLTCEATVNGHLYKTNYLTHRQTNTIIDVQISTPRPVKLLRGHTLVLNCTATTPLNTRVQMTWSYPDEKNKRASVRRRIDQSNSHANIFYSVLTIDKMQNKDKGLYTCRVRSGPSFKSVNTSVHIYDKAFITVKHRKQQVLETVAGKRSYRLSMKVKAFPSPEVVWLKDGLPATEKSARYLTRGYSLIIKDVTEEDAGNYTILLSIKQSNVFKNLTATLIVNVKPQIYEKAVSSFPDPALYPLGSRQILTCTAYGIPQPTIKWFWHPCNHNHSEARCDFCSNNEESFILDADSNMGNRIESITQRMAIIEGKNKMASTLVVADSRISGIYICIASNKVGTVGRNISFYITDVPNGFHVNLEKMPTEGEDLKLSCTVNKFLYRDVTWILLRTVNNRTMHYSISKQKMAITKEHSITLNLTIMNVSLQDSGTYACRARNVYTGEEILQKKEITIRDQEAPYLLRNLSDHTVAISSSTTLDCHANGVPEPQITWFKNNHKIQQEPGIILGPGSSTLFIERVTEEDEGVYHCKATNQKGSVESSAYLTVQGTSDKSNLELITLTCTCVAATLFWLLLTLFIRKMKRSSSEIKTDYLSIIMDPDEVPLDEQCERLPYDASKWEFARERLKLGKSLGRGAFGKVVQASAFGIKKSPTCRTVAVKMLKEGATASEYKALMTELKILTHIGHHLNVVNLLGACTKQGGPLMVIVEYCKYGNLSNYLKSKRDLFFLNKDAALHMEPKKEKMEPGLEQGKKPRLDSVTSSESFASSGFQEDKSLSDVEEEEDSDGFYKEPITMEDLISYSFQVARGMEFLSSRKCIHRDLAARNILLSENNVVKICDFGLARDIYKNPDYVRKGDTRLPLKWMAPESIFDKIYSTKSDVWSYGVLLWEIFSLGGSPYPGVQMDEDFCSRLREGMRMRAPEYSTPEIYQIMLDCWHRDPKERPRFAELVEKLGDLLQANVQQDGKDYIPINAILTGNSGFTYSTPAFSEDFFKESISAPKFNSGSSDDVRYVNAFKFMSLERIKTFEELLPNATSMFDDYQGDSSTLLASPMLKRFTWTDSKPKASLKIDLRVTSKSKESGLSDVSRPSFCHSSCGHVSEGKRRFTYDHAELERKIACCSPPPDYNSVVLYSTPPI

[5] = molecular target: T2, 5-hydroxytryptamine receptor 2C (Homo sapiens, UniProt P28335); experiment: DRUGMATRIX: Serotonin (5-Hydroxytryptamine) 5-HT2C radioligand binding (ligand: [3H] Mesulergine); assay type: cell membranes, CHO-K1, Membrane; conditions: cho-k1; Not Active = under 50% inhibition at 10 µM
T2 sequence (P28335 whole entry): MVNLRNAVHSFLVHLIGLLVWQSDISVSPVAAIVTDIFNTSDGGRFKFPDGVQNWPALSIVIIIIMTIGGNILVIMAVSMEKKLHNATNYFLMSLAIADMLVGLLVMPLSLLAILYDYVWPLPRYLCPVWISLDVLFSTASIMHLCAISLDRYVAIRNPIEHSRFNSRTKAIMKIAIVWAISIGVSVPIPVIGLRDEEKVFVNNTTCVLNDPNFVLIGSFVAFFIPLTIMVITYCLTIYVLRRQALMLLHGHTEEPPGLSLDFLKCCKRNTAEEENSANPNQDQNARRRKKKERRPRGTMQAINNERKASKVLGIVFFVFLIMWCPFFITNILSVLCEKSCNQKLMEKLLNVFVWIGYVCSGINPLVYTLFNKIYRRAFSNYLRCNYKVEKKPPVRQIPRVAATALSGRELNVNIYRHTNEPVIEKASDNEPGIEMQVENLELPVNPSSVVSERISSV

[6] = molecular target: T3, 3-hydroxy-3-methylglutaryl-coenzyme A reductase (Homo sapiens, UniProt P04035); design: species or system Escherichia coli;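 further: enzyme inhibition assay of HMG-CoA reductase using radiolabeled [14C]HMG-CoA as substrate; in other assays of this panel Not Active means under 50% inhibition at 10 µM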
T3 sequence (P04035 whole entry): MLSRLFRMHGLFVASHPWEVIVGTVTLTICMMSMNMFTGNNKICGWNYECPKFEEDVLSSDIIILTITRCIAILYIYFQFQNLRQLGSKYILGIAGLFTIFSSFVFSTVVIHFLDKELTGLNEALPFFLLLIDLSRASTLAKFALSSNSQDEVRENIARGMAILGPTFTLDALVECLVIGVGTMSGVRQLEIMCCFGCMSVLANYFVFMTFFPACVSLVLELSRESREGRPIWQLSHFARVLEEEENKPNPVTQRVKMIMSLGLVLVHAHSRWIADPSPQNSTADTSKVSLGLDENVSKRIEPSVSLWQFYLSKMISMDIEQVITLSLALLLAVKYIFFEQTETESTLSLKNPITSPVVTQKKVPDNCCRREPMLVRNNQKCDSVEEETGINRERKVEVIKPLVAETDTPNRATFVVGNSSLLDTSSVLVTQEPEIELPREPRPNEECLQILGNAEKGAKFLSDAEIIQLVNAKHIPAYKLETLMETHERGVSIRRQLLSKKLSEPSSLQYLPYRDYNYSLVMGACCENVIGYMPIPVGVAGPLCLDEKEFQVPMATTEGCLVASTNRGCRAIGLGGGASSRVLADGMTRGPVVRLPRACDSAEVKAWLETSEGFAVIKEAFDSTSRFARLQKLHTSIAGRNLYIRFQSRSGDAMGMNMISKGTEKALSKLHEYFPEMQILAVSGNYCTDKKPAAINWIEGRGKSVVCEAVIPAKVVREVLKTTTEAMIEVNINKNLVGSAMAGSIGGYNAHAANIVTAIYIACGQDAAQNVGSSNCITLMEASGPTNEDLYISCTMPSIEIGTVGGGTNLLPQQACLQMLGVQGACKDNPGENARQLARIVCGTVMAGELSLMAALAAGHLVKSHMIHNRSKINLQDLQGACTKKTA

Substance-P receptor = Substance-P receptor (Homo sapiens, UniProt P25103); assay type: cell membranes, Membrane; conditions: cho; further: in other assays of this panel Not Active means under 50% inhibition at 10 µM
Chain of Substance-P receptor (P25103 whole entry): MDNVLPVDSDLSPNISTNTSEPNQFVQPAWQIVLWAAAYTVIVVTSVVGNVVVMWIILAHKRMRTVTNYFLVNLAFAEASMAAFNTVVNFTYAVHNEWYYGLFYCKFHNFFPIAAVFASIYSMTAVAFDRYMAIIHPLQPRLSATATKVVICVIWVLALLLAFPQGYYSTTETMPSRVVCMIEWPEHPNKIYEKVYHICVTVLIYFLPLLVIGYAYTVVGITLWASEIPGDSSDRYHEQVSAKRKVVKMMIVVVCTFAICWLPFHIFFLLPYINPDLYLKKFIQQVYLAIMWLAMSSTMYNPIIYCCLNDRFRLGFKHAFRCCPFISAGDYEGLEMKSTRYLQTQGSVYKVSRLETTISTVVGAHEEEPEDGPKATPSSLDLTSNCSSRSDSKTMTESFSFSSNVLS

[7] = molecular target: Mitogen-activated protein kinase 3 (Homo sapiens, UniProt P27361); experiment: DRUGMATRIX: Protein Serine/Threonine Kinase, ERK1 enzyme inhibition (substrate: Myelin Basic Protein); design: species or system Escherichia coli; conditions: Not Active = under 50% inhibition at 10 µM
Chain of Mitogen-activated protein kinase 3 (P27361 whole entry): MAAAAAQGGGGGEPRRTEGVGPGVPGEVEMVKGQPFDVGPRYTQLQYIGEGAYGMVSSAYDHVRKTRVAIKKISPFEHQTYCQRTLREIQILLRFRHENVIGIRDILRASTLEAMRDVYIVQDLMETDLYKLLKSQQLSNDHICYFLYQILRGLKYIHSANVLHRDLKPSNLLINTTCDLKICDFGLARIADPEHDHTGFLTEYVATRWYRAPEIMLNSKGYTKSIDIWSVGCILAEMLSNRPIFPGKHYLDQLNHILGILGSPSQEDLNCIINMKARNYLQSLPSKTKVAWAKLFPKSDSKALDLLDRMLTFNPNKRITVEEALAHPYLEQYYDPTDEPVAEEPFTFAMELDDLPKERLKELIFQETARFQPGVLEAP

Cannabinoid receptor 1 = Cannabinoid receptor 1 (Homo sapiens, UniProt P21554); assay type: cell membranes, Chem-1, Membrane; conditions: chem-1; further: in other assays of this panel Not Active means under 50% inhibition at 10 µM
Chain of Cannabinoid receptor 1 (P21554 whole entry): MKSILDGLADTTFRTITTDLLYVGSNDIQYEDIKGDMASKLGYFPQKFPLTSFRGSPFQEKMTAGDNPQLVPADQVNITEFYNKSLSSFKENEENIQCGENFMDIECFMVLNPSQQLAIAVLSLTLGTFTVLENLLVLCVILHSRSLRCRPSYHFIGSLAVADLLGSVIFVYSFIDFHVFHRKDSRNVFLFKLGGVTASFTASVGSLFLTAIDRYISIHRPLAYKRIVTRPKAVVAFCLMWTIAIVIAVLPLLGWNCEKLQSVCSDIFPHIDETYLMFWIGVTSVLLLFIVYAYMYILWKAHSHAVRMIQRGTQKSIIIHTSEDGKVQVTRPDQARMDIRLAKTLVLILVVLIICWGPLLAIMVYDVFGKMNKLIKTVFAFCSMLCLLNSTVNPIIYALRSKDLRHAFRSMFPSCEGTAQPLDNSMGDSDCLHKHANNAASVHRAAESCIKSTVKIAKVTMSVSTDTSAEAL

Cytochrome P450 2E1 = Cytochrome P450 2E1 (Homo sapiens, UniProt P05181); conditions: bti-tn-5b1-4; further: in other assays of this panel Not Active means under 50% inhibition at 10 µM
Chain of Cytochrome P450 2E1 (P05181 whole entry): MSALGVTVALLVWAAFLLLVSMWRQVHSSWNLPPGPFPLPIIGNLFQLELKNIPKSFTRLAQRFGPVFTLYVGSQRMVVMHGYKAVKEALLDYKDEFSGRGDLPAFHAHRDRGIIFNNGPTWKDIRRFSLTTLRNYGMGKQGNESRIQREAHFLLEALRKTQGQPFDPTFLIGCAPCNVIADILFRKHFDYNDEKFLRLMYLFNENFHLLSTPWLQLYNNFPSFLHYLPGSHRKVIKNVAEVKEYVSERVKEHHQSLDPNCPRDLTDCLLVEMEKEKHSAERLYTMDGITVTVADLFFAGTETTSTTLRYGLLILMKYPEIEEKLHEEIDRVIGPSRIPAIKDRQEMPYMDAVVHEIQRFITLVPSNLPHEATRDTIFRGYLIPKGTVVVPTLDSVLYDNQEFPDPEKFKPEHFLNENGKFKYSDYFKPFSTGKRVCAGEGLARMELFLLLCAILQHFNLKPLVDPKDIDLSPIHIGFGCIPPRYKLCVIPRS

Cytochrome P450 2A6 = molecular target: T4, Cytochrome P450 2A6 (Homo sapiens, UniProt P11509); conditions: bti-tn-5b1-4; further: in other assays of this panel Not Active means under 50% inhibition at 10 µM
T4 sequence (P11509 whole entry): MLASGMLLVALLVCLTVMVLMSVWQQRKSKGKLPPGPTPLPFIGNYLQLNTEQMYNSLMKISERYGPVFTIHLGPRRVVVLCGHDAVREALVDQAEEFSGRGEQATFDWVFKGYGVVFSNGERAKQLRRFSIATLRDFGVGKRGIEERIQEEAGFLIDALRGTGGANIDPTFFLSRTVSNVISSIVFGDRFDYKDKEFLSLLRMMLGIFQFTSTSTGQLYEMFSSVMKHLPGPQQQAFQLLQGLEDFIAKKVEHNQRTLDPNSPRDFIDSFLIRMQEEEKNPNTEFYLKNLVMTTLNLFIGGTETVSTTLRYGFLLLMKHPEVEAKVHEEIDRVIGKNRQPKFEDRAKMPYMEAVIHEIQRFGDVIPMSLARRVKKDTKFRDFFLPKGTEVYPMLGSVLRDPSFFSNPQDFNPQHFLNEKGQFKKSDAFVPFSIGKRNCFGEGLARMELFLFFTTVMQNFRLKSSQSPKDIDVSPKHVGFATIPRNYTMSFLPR

Chain of 5-hydroxytryptamine receptor 1B (P28564 whole entry): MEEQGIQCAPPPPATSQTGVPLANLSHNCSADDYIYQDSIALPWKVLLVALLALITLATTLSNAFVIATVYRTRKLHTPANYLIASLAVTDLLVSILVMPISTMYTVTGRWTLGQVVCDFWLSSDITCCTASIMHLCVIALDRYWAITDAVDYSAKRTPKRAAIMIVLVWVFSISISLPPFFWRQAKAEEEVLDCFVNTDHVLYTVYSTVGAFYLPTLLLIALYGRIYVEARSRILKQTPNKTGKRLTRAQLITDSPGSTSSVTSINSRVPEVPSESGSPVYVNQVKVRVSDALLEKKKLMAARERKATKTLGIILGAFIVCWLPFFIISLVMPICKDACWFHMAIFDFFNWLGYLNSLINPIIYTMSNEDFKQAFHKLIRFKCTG

C[C@]1(Cn2ccnn2)[C@H](C(=O)O)N2C(=O)C[C@H]2S1(=O)=O [TAZOBACTAM]
Not Active: IC50 [1] | IC50 [2] | Ki [2] | IC50 [3] | IC50 [4] | IC50 [5] | IC50 [6] | IC50 (Substance-P receptor) | IC50 [7] | IC50 (Cannabinoid receptor 1) | IC50 (Cytochrome P450 2E1) | Ki (Cytochrome P450 2E1) | IC50 (Cytochrome P450 2A6) | Ki (Cytochrome P450 2A6)

CN1C(C(=O)Nc2ccccn2)=C(O)c2sccc2S1(=O)=O [TENOXICAM]
Not Active: IC50 [1] | IC50 [2] | Ki [2] | IC50 [3] | IC50 [4] | IC50 [5] | IC50 [6] | IC50 (Substance-P receptor) | IC50 [7] | IC50 (Cannabinoid receptor 1) | IC50 (Cytochrome P450 2E1) | Ki (Cytochrome P450 2E1) | IC50 (Cytochrome P450 2A6) | Ki (Cytochrome P450 2A6)

O=C1CCC(N2C(=O)c3ccccc3C2=O)C(=O)N1 (stereo not given) [THALIDOMIDE]
Not Active: IC50 [1] | IC50 [2] | Ki [2] | IC50 [3] | IC50 [4] | IC50 [5] | IC50 [6] | IC50 (Substance-P receptor) | IC50 [7] | IC50 (Cannabinoid receptor 1) | IC50 (Cytochrome P450 2E1) | Ki (Cytochrome P450 2E1) | IC50 (Cytochrome P450 2A6) | Ki (Cytochrome P450 2A6)

Cc1cccc(Nc2ccncc2S(=O)(=O)NC(=O)NC(C)C)c1 [TORSEMIDE]
Not Active: IC50 [1] | IC50 [2] | Ki [2] | IC50 [3] | IC50 [4] | IC50 [5] | IC50 [6] | IC50 (Substance-P receptor) | IC50 [7] | IC50 (Cannabinoid receptor 1) | IC50 (Cytochrome P450 2E1) | Ki (Cytochrome P450 2E1) | IC50 (Cytochrome P450 2A6) | Ki (Cytochrome P450 2A6)

CC(C)C[C@H](NC(=O)[C@@H](O)[C@H](N)Cc1ccccc1)C(=O)O [UBENIMEX]
Not Active: IC50 [1] | IC50 [2] | Ki [2] | IC50 [3] | IC50 [4] | IC50 [5] | IC50 [6] | IC50 (Substance-P receptor) | IC50 [7] | IC50 (Cannabinoid receptor 1) | IC50 (Cytochrome P450 2E1) | Ki (Cytochrome P450 2E1) | IC50 (Cytochrome P450 2A6) | Ki (Cytochrome P450 2A6)

Cc1onc(-c2ccccc2)c1-c1ccc(S(N)(=O)=O)cc1 [VALDECOXIB]
Not Active: IC50 [1] | IC50 [2] | Ki [2] | IC50 [3] | IC50 [4] | IC50 [5] | IC50 [6] | IC50 (Substance-P receptor) | IC50 [7] | IC50 (Cannabinoid receptor 1) | IC50 (Cytochrome P450 2E1) | Ki (Cytochrome P450 2E1) | IC50 (Cytochrome P450 2A6) | Ki (Cytochrome P450 2A6)

CC[C@]1(O)C[C@@H]2CN(CCc3c([nH]c4ccccc34)[C@@](C(=O)OC)(c3cc4c(cc3OC)N(C)[C@H]3[C@@](O)(C(=O)OC)[C@H](OC(C)=O)[C@]5(CC)C=CCN6CC[C@]43[C@@H]65)C2)C1 [VINBLASTINE]
Not Active: IC50 [1] | IC50 [2] | Ki [2] | IC50 [3] | IC50 [4] | IC50 [5] | IC50 [6] | IC50 (Substance-P receptor) | IC50 [7] | IC50 (Cannabinoid receptor 1) | IC50 (Cytochrome P450 2E1) | Ki (Cytochrome P450 2E1) | IC50 (Cytochrome P450 2A6) | Ki (Cytochrome P450 2A6)

CC(=O)CC(c1ccccc1)c1c(O)c2ccccc2oc1=O (stereo not given) [WARFARIN]
Not Active: IC50 [1] | IC50 [2] | Ki [2] | IC50 [3] | IC50 [4] | IC50 [5] | IC50 [6] | IC50 (Substance-P receptor) | IC50 [7] | IC50 (Cannabinoid receptor 1) | IC50 (Cytochrome P450 2E1) | Ki (Cytochrome P450 2E1) | IC50 (Cytochrome P450 2A6) | Ki (Cytochrome P450 2A6)

C[C@@H](N)[C@H]1CC[C@H](C(=O)Nc2ccncc2)CC1 [Y-27632]
Not Active: IC50 [1] | IC50 [2] | Ki [2] | IC50 [3] | IC50 [4] | IC50 [5] | IC50 [6] | IC50 (Substance-P receptor) | IC50 [7] | IC50 (Cannabinoid receptor 1) | IC50 (Cytochrome P450 2E1) | Ki (Cytochrome P450 2E1) | IC50 (Cytochrome P450 2A6) | Ki (Cytochrome P450 2A6)

[Cl-].[Cl-].[Zn+2] [ZINC CHLORIDE]
Not Active: IC50 [1] | IC50 [2] | Ki [2] | IC50 [3] | IC50 [4] | IC50 [5] | IC50 [6] | IC50 (Substance-P receptor) | IC50 [7] | IC50 (Cannabinoid receptor 1) | IC50 (Cytochrome P450 2E1) | Ki (Cytochrome P450 2E1) | IC50 (Cytochrome P450 2A6) | Ki (Cytochrome P450 2A6)
